Test results from patent publication US20220009920A1 (GB005, Inc., priority 2020, published 2022).

Legend:
Experiment in all cases: Large panel kinase profiling
Format in all cases: biochemical
Settings in all cases: 1 μM test article, 1 mM ATP
[1] = molecular target: ABL2 (Homo sapiens, UniProt P42684)
Outline: (§1)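 At 30° C., kinases turned over a CSox-Sensor peptide substrate with 1 mM ATP while 1 μM test article was present. Progress was followed by kinetic fluorescence readings.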

[2] = molecular target: T1, GRK1 (Homo sapiens, UniProt Q15835)
T1 construct: AssayQuant Technologies, Inc. (service provider)
T1 sequence (Q15835 1-563): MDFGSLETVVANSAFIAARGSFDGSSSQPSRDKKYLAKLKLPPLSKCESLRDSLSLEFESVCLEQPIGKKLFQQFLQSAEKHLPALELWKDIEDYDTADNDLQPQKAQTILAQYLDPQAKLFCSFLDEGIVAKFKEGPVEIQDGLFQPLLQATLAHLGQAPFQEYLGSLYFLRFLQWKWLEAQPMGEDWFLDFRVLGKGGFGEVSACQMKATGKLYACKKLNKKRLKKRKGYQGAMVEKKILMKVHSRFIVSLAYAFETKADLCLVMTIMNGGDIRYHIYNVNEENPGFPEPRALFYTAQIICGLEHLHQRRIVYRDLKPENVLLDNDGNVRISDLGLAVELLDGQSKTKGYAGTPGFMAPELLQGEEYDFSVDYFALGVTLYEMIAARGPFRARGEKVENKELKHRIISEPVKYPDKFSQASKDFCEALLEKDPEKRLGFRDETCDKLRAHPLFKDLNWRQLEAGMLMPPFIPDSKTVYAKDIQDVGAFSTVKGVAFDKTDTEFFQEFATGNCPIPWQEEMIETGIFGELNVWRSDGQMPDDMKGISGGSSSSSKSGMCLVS
Outline: as §1

[3] = molecular target: T2, NEK6 (Homo sapiens, UniProt Q9HC98)
T2 construct: AssayQuant Technologies, Inc. (assay service)
Outline: as §1

[4] = molecular target: PIM1 (Homo sapiens, UniProt P11309)
Outline: as §1

[5] = molecular target: PRKAA1/AMPK111 (Homo sapiens, UniProt Q13131)
Outline: as §1

[6] = molecular target: RAF1 (Homo sapiens, UniProt P04049)
Outline: as §1

[7] = molecular target: RPS6KA2/RSK3 (Homo sapiens, UniProt Q15349)
Outline: as §1

[8] = molecular target: T3, ULK2 (Homo sapiens, UniProt Q8IYT8)
T3 construct: AssayQuant Technologies, Inc. (contract laboratory that ran the panel)
T3 sequence (Q8IYT8 1-1036): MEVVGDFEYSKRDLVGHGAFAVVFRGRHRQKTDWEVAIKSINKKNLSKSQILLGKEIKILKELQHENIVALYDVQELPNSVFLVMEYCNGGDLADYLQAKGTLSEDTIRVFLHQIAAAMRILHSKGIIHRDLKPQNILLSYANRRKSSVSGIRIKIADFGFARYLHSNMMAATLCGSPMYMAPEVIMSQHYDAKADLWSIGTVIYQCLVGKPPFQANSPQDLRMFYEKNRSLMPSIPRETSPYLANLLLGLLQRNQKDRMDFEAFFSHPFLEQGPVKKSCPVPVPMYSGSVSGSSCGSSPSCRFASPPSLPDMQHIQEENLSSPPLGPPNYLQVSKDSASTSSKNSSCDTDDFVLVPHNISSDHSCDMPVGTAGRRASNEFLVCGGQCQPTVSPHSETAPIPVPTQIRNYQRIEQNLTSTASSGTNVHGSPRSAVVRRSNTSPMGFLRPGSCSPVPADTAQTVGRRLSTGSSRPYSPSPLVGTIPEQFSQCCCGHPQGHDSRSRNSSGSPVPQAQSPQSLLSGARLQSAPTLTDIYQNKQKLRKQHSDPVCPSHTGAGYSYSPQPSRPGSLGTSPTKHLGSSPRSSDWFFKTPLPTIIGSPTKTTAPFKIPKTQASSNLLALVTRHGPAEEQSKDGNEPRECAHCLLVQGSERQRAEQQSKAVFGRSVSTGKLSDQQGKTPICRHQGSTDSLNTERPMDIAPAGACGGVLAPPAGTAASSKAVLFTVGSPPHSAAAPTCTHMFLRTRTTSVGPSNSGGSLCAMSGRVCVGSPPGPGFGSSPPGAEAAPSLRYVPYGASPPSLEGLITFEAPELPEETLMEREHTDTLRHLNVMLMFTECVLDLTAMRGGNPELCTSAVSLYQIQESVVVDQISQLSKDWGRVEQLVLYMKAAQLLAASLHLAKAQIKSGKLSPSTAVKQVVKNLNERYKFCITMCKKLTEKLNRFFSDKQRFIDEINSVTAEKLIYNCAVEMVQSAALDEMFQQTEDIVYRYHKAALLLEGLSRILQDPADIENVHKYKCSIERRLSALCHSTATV
Outline: as §1

Sequence of RPS6KA2/RSK3 (Q15349 whole entry): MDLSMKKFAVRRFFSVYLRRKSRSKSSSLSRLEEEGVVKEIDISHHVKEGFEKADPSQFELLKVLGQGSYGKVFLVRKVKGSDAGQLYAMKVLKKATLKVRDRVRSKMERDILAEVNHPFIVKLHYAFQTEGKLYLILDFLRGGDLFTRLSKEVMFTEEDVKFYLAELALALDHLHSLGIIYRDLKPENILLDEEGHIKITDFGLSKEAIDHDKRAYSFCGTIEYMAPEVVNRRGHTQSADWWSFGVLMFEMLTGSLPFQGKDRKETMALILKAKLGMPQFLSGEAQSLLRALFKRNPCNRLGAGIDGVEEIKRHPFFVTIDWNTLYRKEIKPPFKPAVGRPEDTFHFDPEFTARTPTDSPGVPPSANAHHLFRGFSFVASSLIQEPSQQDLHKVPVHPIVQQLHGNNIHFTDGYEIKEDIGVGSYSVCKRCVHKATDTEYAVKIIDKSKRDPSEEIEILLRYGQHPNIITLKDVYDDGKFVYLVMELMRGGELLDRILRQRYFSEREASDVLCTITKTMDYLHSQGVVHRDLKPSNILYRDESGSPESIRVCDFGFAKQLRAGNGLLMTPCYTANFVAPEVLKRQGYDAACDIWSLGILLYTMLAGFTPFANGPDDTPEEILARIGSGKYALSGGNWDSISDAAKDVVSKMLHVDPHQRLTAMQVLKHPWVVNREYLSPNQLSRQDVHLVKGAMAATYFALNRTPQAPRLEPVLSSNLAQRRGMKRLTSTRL
Sequence of PIM1 (P11309 whole entry, species assumed): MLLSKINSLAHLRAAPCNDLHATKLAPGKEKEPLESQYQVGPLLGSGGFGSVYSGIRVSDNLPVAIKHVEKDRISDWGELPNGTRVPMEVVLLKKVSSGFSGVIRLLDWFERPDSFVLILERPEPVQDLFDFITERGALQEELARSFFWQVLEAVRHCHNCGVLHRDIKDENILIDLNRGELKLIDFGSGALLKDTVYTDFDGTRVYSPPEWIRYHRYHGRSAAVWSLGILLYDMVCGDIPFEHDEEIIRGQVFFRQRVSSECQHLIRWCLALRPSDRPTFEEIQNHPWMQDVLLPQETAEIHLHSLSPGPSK
Sequence of PRKAA1/AMPK111 (Q13131 whole entry, species assumed): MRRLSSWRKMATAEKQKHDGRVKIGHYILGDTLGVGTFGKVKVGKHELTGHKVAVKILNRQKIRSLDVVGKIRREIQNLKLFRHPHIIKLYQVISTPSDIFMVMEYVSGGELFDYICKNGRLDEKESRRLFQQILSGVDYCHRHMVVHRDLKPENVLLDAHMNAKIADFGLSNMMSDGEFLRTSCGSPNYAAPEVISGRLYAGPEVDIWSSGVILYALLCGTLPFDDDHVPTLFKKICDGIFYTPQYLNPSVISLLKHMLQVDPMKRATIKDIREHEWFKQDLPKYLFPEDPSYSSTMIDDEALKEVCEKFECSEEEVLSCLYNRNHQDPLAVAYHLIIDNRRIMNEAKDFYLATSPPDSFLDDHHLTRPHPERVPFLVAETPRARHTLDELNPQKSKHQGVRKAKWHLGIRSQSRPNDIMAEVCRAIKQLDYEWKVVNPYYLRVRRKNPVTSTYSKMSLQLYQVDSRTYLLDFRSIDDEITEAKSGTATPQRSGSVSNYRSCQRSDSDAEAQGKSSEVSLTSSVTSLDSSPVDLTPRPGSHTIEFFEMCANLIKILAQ
Sequence of PRKAA1/AMPK111 (Q9Y478 whole entry partner, species assumed): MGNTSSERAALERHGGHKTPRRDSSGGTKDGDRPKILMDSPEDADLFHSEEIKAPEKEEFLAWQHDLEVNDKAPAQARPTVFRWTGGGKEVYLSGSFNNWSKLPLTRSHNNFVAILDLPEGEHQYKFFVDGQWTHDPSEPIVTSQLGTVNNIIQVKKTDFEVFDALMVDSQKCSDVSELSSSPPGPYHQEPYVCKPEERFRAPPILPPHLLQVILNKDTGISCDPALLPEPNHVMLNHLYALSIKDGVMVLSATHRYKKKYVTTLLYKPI
Sequence of PRKAA1/AMPK111 (P54619 whole entry partner, species assumed): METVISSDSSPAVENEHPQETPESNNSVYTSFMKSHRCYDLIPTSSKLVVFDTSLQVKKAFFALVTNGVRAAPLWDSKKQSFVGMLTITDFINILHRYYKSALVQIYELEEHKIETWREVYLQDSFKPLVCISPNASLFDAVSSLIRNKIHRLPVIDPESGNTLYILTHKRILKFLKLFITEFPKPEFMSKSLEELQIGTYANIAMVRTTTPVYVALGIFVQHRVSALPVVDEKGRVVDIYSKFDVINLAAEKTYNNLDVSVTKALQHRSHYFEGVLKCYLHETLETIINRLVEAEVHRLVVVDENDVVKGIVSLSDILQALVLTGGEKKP
Sequence of ABL2 (P42684 whole entry): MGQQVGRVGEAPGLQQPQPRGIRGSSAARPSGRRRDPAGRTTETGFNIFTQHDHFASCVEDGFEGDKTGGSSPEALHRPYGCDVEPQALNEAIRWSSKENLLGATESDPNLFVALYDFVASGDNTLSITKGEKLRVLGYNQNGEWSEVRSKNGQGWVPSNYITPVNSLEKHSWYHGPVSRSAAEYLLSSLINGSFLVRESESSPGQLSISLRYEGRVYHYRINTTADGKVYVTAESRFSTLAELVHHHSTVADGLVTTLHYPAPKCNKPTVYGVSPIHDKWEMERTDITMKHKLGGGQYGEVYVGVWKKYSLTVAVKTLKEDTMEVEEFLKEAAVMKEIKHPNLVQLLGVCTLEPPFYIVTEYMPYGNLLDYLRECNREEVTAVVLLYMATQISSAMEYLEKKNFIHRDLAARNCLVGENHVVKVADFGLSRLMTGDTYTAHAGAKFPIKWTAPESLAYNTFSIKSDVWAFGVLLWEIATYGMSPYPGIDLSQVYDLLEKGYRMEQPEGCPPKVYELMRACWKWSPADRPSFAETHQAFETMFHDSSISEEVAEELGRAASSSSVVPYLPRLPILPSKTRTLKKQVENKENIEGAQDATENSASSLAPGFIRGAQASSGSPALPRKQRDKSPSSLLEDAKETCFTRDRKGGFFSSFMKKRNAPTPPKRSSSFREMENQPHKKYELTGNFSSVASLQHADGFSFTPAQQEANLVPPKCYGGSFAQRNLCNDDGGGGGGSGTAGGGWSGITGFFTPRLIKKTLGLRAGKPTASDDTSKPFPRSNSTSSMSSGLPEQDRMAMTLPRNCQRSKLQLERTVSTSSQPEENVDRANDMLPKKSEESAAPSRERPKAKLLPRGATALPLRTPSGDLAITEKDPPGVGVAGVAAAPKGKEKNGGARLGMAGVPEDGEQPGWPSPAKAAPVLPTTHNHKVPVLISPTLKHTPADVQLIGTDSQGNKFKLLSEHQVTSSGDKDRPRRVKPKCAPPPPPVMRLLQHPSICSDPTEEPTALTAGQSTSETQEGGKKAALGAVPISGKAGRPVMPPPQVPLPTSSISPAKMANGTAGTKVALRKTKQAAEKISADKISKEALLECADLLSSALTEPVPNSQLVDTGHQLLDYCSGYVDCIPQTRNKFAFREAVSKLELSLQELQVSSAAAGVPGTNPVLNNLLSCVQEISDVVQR
Sequence of RAF1 (P04049 whole entry, species assumed): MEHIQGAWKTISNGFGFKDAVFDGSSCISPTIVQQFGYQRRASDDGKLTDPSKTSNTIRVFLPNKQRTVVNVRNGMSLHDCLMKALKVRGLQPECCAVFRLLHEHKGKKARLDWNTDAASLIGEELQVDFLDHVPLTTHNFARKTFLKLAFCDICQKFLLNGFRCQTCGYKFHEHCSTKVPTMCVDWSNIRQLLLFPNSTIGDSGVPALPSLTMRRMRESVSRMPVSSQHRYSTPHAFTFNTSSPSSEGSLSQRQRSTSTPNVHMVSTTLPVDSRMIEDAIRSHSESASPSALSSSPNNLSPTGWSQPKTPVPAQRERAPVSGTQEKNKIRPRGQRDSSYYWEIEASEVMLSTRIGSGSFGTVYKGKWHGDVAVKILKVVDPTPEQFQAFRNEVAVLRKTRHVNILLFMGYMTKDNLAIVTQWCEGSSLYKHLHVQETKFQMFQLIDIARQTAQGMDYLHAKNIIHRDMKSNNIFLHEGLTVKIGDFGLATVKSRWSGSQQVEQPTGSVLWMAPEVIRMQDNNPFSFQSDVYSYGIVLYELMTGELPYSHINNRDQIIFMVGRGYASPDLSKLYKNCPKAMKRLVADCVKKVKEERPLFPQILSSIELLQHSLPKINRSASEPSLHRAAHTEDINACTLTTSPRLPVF
T2 sequence (Q9HC98 whole entry, species assumed): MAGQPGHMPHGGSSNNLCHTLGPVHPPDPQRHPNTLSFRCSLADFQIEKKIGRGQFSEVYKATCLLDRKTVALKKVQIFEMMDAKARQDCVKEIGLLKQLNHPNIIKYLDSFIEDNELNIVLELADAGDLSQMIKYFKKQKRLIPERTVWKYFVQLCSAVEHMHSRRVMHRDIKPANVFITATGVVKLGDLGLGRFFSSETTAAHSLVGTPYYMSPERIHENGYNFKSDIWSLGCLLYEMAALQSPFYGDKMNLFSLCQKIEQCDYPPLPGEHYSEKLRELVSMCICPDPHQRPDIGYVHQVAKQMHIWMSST

SMILES | inhibition at 1 µM [1] [%] | inhibition at 1 µM [2] [%] | inhibition at 1 µM [3] [%] | inhibition at 1 µM [4] [%] | inhibition at 1 µM [5] [%] | inhibition at 1 µM [6] [%] | inhibition at 1 µM [7] [%] | inhibition at 1 µM [8] [%]
C=CC(=O)N1CCCC(c2c(F)cc(C(N)=O)c3[nH]c4c(c23)CCCCC4)C1 (single isomer, unassigned) [Compound 5-6] | -29.7 | 16.4 | -13.5 | 7 | -13.5 | 3.7 | 1.7 | -17.5
C=CC(=O)N1CCC[C@@H](c2c(F)cc(C(N)=O)c3[nH]c4c(c23)CCC4)C1 [Compound 10-2, (S)-8-(1-acryloylpiperidin-3-yl)-7-fluoro-1,2,3,4-tetrahydrocyclo-penta[b]indole-5-carboxamide] | 1.9 | -1.4 | -13.6 | -7.1 | 2.2 | -3.1 | -38 | -5.8
C=CC(=O)N1CCC[C@@H](c2c(F)cc(C(N)=O)c3[nH]c4c(c23)CC2(CC4)CC2)C1 [Compound 6-2, (S)-5-(1-acryloylpiperidin-3-yl)-6-fluoro-1,2,4,9-tetrahydrospiro[carbazole-3,1′-cyclopropane]-8-carboxamide] | -1.3 | -46.1 | -5.8 | -43 | 13.2 | 1 | -47.9 | -6.2
